Test results from patent US11046945B2, “Labeled glutaminase proteins, isolated glutaminase protein mutants, methods of use, and kit” (CORNELL UNIVERSITY, priority 2013, dated 2021).

Biological target: T1, 488-GAC (WT) (Mus musculus, UniProt D3Z7P3)
T1 construct: plasmid (residues 72-603 for GAC, 72-674 for KGA); His-tag with thrombin cleavage site (N, cleaved yes); made in house; host or cells: pET23a vector
T1 sequence (D3Z7P3 72-603 isoform D3Z7P3-2): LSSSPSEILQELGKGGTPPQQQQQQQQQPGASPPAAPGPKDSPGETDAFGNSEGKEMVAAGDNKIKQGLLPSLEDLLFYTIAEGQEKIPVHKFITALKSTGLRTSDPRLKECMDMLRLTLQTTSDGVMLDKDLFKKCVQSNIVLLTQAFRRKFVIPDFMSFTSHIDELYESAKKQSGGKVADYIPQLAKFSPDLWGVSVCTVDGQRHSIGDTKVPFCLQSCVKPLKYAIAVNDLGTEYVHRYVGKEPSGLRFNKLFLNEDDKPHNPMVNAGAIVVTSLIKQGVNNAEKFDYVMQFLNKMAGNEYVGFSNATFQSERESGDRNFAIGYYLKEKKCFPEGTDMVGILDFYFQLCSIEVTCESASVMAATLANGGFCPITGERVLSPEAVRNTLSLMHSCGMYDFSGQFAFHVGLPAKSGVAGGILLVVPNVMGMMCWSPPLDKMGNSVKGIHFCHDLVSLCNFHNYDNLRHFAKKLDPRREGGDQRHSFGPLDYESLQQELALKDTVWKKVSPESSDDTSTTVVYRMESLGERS
Experiment: Real-time binding read-out by 488-GAC fluorescence quenching
Settings: for quenching of 488-GAC fluorescence (direct binding): 10 nM 488-GAC, no QSY 9-GAC
Procedure: Real-time fluorescence monitoring of 488-GAC fluorescence and NADH fluorescence was performed on a Varian Carry Eclipse Fluorometer, whereas small molecule inhibition and binding titrations were performed in a 96-well format using Grenier non-binding 96-well plates in a Tecan Saphire absorbance and fluorescence plate reader. Samples for monitoring real time binding of 968 to 488-GAC were prepared by adding 10 […] (490 nm excitation/520 nm emission). Similarly, this method was replicated for monitoring real time binding of 968 to KGA and mutant forms of GAC, namely 488-D391K-GAC and 488-K316E-D391K-R459E-GAC. Titrations of 968 with mutant forms of GAC were done in triplicate and quantified by the following equation
[formula] where F is the normalized fluorescence at given drug concentration (i.e., F/F0), and Fsat is the normalized fluorescence at saturating concentrations of drug, as shown in FIG. 7A. […] 10 nM WT GAC was added and allowed to equilibrate 2 minutes before beginning to monitor fluorescence of 488-GAC (490 nm excitation, 520 nm emission) and NADH fluorescence (340 nm excitation, 490 nm emission). […] The activity of GAC was indirectly measured by the NADH produced by the added glutamate dehydrogenase, which converts the product of glutaminase activity, glutamate, to α-ketoglutarate and ammonia through reducing NAD^+ to NADH. Because solutions containing glutamine undergo non-enzymatic degradation to glutamate, samples were further analyzed by subtracting the evolved NADH produced by glutaminase in the presence of 968, BPTES, or the equivalent volume of DMSO as a control, by the evolved NADH produced in the absence of glutaminase under identical experimental conditions. Evolved NADH was quantified using a standard curve of freshly prepared NADH (Sigma) in 50 mM Tris-Acetate pH=8.5, 0.1 mM EDTA.
Procedures for the described real-time binding and inhibition assays were adapted for 96-well microtiter format with minor alterations. […] Quenching was quantified by subtracting the normalized fluorescence by one (i.e., 1-F/F0). […]

binding to 488-labeled GAC (WT) (20 nM 488-labeled protein, 968 titration)	SMILES	quenching of 488-GAC fluorescence (direct binding)
–	O=C(Cc1ccccc1)Nc1nnc(CCSCCc2nnc(NC(=O)Cc3ccccc3)s2)s1 [BPTES]	without affecting the fluorescence emission
capable of binding	CN(C)c1ccc(C2Nc3ccc4ccccc4c3C3=C2C(=O)CC(C)(C)C3)cc1Br (stereo not drawn) [compound 968]	concentration dependent quenching
